Results published in PMC2248166, “Quantitative peptide binding motifs for 19 human and mouse MHC class I molecules derived using positional scanning combinatorial peptide libraries” (Immunome Research, 2008).
Where a SMILES comes first, the peptide text is derived from it.

Tests used:
HLA B*1503 = HLA B*1503 (Homo sapiens, UniProt P01889, A329T/A93T/A95T/C349S/D201E/D98Y/E187L/E204Q/K202T/N87E/Q94N/R155S/R180L/S121R/S35A/V306I/V36M/Y140S/Y91S); experiment: biochemical; assay type: binding
HLA B*1501 = HLA B*1501 (Homo sapiens, UniProt P01889, A329T/A93T/A95T/C349S/D201E/D98Y/E187L/E204Q/E69M/E70A/K202T/N87E/Q94N/R155S/R180W/S121R/S35A/S48A/V306I/V36M/Y140S/Y91S); experiment: biochemical; assay type: binding

SMILES	IC50 (HLA B*1503) [nM]	IC50 (HLA B*1501) [nM]
CC(C)C[C@H](NC(=O)[C@H](Cc1ccccc1)NC(=O)[C@@H](NC(=O)[C@H](CCCCN)NC(=O)[C@H](CO)NC(=O)[C@@H](N)CO)C(C)C)C(=O)N[C@@H](CCCCN)C(=O)N[C@@H](C)C(=O)N[C@@H](Cc1ccccc1)C(=O)O [3102.0662] (H-SSKVFLKAF-OH)	0.37	1.7
CC[C@H](C)[C@H](NC(=O)[C@H](CO)NC(=O)[C@@H](N)Cc1c[nH]c2ccccc12)C(=O)N[C@@H](Cc1ccc(O)cc1)C(=O)N[C@@H](CC(C)C)C(=O)N[C@@H](CO)C(=O)N[C@@H](CC(C)C)C(=O)N[C@@H](Cc1c[nH]cn1)C(=O)N[C@@H](Cc1ccc(O)cc1)C(=O)O [3102.0867] (H-WSIYLSLHY-OH)	8.9	48
CC[C@H](C)[C@H](NC(=O)[C@H](CO)NC(=O)[C@@H](N)CC(C)C)C(=O)N[C@@H](CC(N)=O)C(=O)N[C@@H](CO)C(=O)N[C@@H](CO)C(=O)N[C@@H](Cc1ccccc1)C(=O)N[C@@H](Cc1ccc(O)cc1)C(=O)N[C@@H](Cc1ccccc1)C(=O)O [3102.1034] (H-LSINSSFYF-OH)	4.8	1
CC[C@H](C)[C@H](NC(=O)[C@H](Cc1ccc(O)cc1)NC(=O)[C@@H](NC(=O)[C@H](CC(N)=O)NC(=O)[C@H](CCC(=O)O)NC(=O)[C@@H](N)CCSC)C(C)C)C(=O)N[C@@H](CO)C(=O)N[C@@H](CO)C(=O)N[C@@H](Cc1ccc(O)cc1)C(=O)O [3102.1042] (H-MENVYISSY-OH)	–	2
CC[C@H](C)[C@H](NC(=O)[C@H](CC(N)=O)NC(=O)[C@H](C)NC(=O)[C@@H](NC(=O)[C@@H](N)CC(C)C)[C@@H](C)CC)C(=O)N[C@@H](Cc1c[nH]cn1)C(=O)N[C@@H](CC(N)=O)C(=O)N[C@@H](Cc1c[nH]cn1)C(=O)N[C@@H](CCSC)C(=O)O [3102.1046] (H-LIANIHNHM-OH)	–	0.67
CC(C)C[C@H](NC(=O)[C@@H](NC(=O)[C@H](CO)NC(=O)[C@@H](NC(=O)[C@H](CC(N)=O)NC(=O)[C@H](CC(C)C)NC(=O)[C@@H](N)CO)[C@@H](C)O)[C@@H](C)O)C(=O)NCC(=O)N[C@@H](Cc1ccccc1)C(=O)O [3102.1051] (H-SLNTSTLGF-OH)	13	1.7
CSCC[C@H](NC(=O)[C@H](CCC(N)=O)NC(=O)[C@H](CCC(N)=O)NC(=O)[C@@H](NC(=O)[C@H](CCC(=O)O)NC(=O)[C@@H]1CCCN1C(=O)[C@H](CO)NC(=O)[C@H](CO)NC(=O)[C@@H](N)CCCCN)[C@@H](C)O)C(=O)O [3102.1065] (H-KSSPETQQM-OH)	–	30
CC[C@H](C)[C@H](NC(=O)[C@H](Cc1c[nH]cn1)NC(=O)[C@H](CO)NC(=O)[C@@H](NC(=O)[C@@H](NC(=O)[C@H](Cc1ccc(O)cc1)NC(=O)[C@H](C)NC(=O)[C@H](CCSC)NC(=O)[C@@H](N)Cc1ccccc1)[C@@H](C)O)[C@@H](C)O)C(=O)O [3102.1071] (H-FMAYTTSHI-OH)	7.6	133
CC[C@H](C)[C@H](N)C(=O)N[C@@H](CO)C(=O)N[C@H](C(=O)N[C@@H](CC(C)C)C(=O)N[C@H](C(=O)NCC(=O)N[C@@H](CO)C(=O)N[C@@H](CO)C(=O)N[C@H](C(=O)O)[C@@H](C)CC)[C@@H](C)O)C(C)C [3102.1072] (H-ISVLTGSSI-OH)	25	34
CC(C)C[C@H](NC(=O)[C@@H](N)CCCNC(=N)N)C(=O)N[C@@H](CC(N)=O)C(=O)N1CCC[C@H]1C(=O)N[C@@H](CCC(=O)O)C(=O)N[C@H](C(=O)N[C@@H](CO)C(=O)N[C@@H](Cc1ccc(O)cc1)C(=O)N[C@@H](Cc1ccccc1)C(=O)O)C(C)C [3102.1097] (H-RLNPEVSYF-OH)	0.32	0.3
CC[C@H](C)[C@H](NC(=O)[C@H](CCC(N)=O)NC(=O)[C@@H](N)CO)C(=O)N[C@H](C(=O)N[C@H](C(=O)N[C@@H](CC(C)C)C(=O)N[C@H](C(=O)N[C@@H](C)C(=O)N[C@@H](Cc1ccccc1)C(=O)O)[C@@H](C)O)[C@@H](C)O)[C@@H](C)CC [3102.1111] (H-SQIITLTAF-OH)	0.79	1
CC(C)[C@H](NC(=O)[C@H](CCC(N)=O)NC(=O)[C@@H](N)CO)C(=O)N[C@@H](CCCCN)C(=O)N[C@@H](CS)C(=O)N[C@@H](CS)C(=O)N[C@@H](Cc1c[nH]cn1)C(=O)N[C@@H](Cc1ccc(O)cc1)C(=O)N[C@@H](Cc1ccccc1)C(=O)O [3102.1126] (H-SQVKCCHYF-OH)	0.92	0.92
CSCC[C@H](NC(=O)[C@@H](N)C(C)C)C(=O)N[C@H](C(=O)N[C@H](C(=O)N[C@@H](CO)C(=O)N[C@@H](CCCCN)C(=O)N1CCC[C@H]1C(=O)N[C@@H](CC(C)C)C(=O)N[C@@H](Cc1ccccc1)C(=O)O)[C@@H](C)O)C(C)C [3102.1148] (H-VMVTSKPLF-OH)	8.8	16
CSCC[C@H](NC(=O)[C@H](CO)NC(=O)[C@H](CCSC)NC(=O)[C@@H](N)CCSC)C(=O)N[C@@H](Cc1ccc(O)cc1)C(=O)NCC(=O)N[C@@H](CCCCN)C(=O)N[C@@H](C)C(=O)N[C@@H](Cc1ccccc1)C(=O)O [3102.1173] (H-MMSMYGKAF-OH)	2.6	3.2
CC(C)C[C@H](NC(=O)[C@H](CC(C)C)NC(=O)[C@@H](NC(=O)[C@H](CO)NC(=O)[C@H](Cc1ccc(O)cc1)NC(=O)[C@H](CC(C)C)NC(=O)[C@@H](N)CCC(N)=O)[C@@H](C)O)C(=O)N[C@@H](CO)C(=O)N[C@@H](Cc1ccccc1)C(=O)O [3102.1175] (H-QLYSTLLSF-OH)	0.57	3
CSCC[C@H](NC(=O)[C@H](Cc1ccc(O)cc1)NC(=O)[C@H](CCCCN)NC(=O)[C@H](CO)NC(=O)[C@H](Cc1ccccc1)NC(=O)[C@H](C)NC(=O)[C@@H](N)Cc1ccc(O)cc1)C(=O)N[C@@H](CO)C(=O)N[C@@H](Cc1ccccc1)C(=O)O [3102.1180] (H-YAFSKYMSF-OH)	1.8	9
C[C@@H](O)[C@H](NC(=O)[C@H](CCCCN)NC(=O)[C@H](Cc1ccc(O)cc1)NC(=O)[C@H](CCC(N)=O)NC(=O)[C@@H](N)CCC(=O)O)C(=O)N[C@@H](CCC(=O)O)C(=O)N[C@@H](CO)C(=O)N[C@@H](Cc1ccccc1)C(=O)N[C@@H](Cc1ccccc1)C(=O)O [3102.1224] (H-EQYKTESFF-OH)	1.8	6.6
CSCC[C@H](NC(=O)[C@H](Cc1c[nH]cn1)NC(=O)[C@H](CCC(N)=O)NC(=O)CNC(=O)[C@@H]1CCCN1C(=O)[C@@H]1CCCN1C(=O)[C@H](C)NC(=O)[C@H](CO)NC(=O)[C@@H](N)CS)C(=O)O [3102.1226] (H-CSAPPGQHM-OH)	24	53
CC(C)[C@H](NC(=O)[C@H](Cc1ccccc1)NC(=O)CNC(=O)[C@H](Cc1c[nH]cn1)NC(=O)[C@H](CC(N)=O)NC(=O)[C@H](CCC(N)=O)NC(=O)[C@@H](N)Cc1ccc(O)cc1)C(=O)N[C@@H](CO)C(=O)N[C@@H](Cc1ccccc1)C(=O)O [3102.1231] (H-YQNHGFVSF-OH)	2.4	0.17
CC[C@H](C)[C@H](NC(=O)[C@H](CO)NC(=O)[C@H](CC(C)C)NC(=O)CNC(=O)[C@H](CCC(=O)O)NC(=O)[C@H](CO)NC(=O)[C@H](Cc1ccc(O)cc1)NC(=O)[C@H](CC(C)C)NC(=O)[C@@H](N)CCCNC(=N)N)C(=O)O [3102.1232] (H-RLYSEGLSI-OH)	–	4.5
CC(C)C[C@H](NC(=O)[C@@H]1CCCN1C(=O)[C@H](CC(N)=O)NC(=O)[C@H](C)NC(=O)[C@@H](N)Cc1ccccc1)C(=O)N[C@@H](CO)C(=O)N[C@@H](CC(N)=O)C(=O)N1CCC[C@H]1C(=O)N[C@@H](Cc1ccccc1)C(=O)O [3102.1245] (H-FANPLSNPF-OH)	1.9	1.7
CC[C@H](C)[C@H](NC(=O)[C@H](CCC(N)=O)NC(=O)[C@@H](N)CO)C(=O)N[C@@H](CCC(=O)O)C(=O)N[C@H](C(=O)NCC(=O)N[C@H](C(=O)N1CCC[C@H]1C(=O)N[C@@H](Cc1ccccc1)C(=O)O)[C@@H](C)O)[C@@H](C)O [3102.1253] (H-SQIETGTPF-OH)	1.3	0.61
CC[C@H](C)[C@H](NC(=O)[C@H](Cc1c[nH]cn1)NC(=O)[C@H](CCCCN)NC(=O)[C@H](CC(N)=O)NC(=O)[C@H](CCSC)NC(=O)[C@@H](N)Cc1ccccc1)C(=O)N[C@@H](CC(C)C)C(=O)N[C@@H](CO)C(=O)N[C@@H](Cc1ccc(O)cc1)C(=O)O [3102.1258] (H-FMNKHILSY-OH)	0.74	1.7
CC(C)C[C@H](NC(=O)[C@H](CO)NC(=O)[C@H](CO)NC(=O)CNC(=O)[C@H](CO)NC(=O)[C@H](CCCCN)NC(=O)[C@H](C)NC(=O)[C@H](CCC(N)=O)NC(=O)[C@@H](N)CC(C)C)C(=O)O [3102.1276] (H-LQAKSGSSL-OH)	0.33	4.6
CC(C)C[C@H](NC(=O)[C@H](CCC(=O)O)NC(=O)[C@@H]1CCCN1C(=O)[C@@H](NC(=O)[C@H](Cc1ccc(O)cc1)NC(=O)[C@@H](NC(=O)[C@@H](N)Cc1ccccc1)C(C)C)C(C)C)C(=O)N[C@@H](CO)C(=O)N[C@@H](Cc1ccccc1)C(=O)O [3102.1280] (H-FVYVPELSF-OH)	–	0.96
CSCC[C@H](N)C(=O)N[C@@H](CO)C(=O)N[C@@H](CO)C(=O)N[C@@H](CO)C(=O)N[C@@H](CCC(N)=O)C(=O)N[C@@H](CC(=O)O)C(=O)N[C@@H](CC(C)C)C(=O)N[C@@H](CO)C(=O)N[C@@H](Cc1ccccc1)C(=O)O [3102.1286] (H-MSSSQDLSF-OH)	–	16
CC[C@H](C)[C@H](NC(=O)[C@@H](N)Cc1ccccc1)C(=O)N[C@@H](CC(N)=O)C(=O)N[C@@H](CCSC)C(=O)N[C@H](C(=O)NCC(=O)N[C@@H](CC(N)=O)C(=O)N[C@@H](Cc1c[nH]cn1)C(=O)N[C@@H](Cc1ccccc1)C(=O)O)[C@@H](C)O [3102.1288] (H-FINMTGNHF-OH)	–	16
CC[C@H](C)[C@H](NC(=O)[C@H](C)NC(=O)[C@H](CCSC)NC(=O)[C@@H](NC(=O)[C@@H](NC(=O)[C@@H](N)C(C)C)[C@@H](C)CC)[C@@H](C)CC)C(=O)N[C@@H](CC(N)=O)C(=O)N[C@H](C(=O)N[C@@H](Cc1ccccc1)C(=O)O)C(C)C [3102.1303] (H-VIIMAINVF-OH)	–	26
